In PubChem BioAssay (NCI):
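Protocol summary: plate cells (96-well), add compound at 5 concentrations, incubate 48 h, interpolate endpoints linearly. GI50: concentration for 50% inhibition of growth. TGI: total growth inhibition.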

Columns and labels:
Assay in all cases: DTP human tumour cell line panel, 48 h
786-0 renal = test system: 786-0 renal
A498 renal = test system: A498 renal
A549 NSCLC = test system: A549 NSCLC
ACHN renal = test system: ACHN renal
BT-549 breast = test system: BT-549 breast
CAKI-1 renal = test system: CAKI-1 renal
CCRF-CEM leukemia = test system: CCRF-CEM leukemia
COLO 205 colon = test system: COLO 205 colon
DU-145 prostate = test system: DU-145 prostate
EKVX NSCLC = test system: EKVX NSCLC
HCT-116 colon = test system: HCT-116 colon
HCT-15 colon = test system: HCT-15 colon
HL-60(TB) leukemia = test system: HL-60(TB) leukemia
HOP-62 NSCLC = test system: HOP-62 NSCLC
HOP-92 NSCLC = test system: HOP-92 NSCLC
HS 578T breast = test system: HS 578T breast
HT29 colon = test system: HT29 colon
IGROV1 ovarian = test system: IGROV1 ovarian
K-562 leukemia = test system: K-562 leukemia
KM12 colon = test system: KM12 colon
LOX IMVI melanoma = test system: LOX IMVI melanoma
M14 melanoma = test system: M14 melanoma
MCF7 breast = test system: MCF7 breast
MDA-MB-231 breast = test system: MDA-MB-231 breast
MDA-MB-435 = test system: MDA-MB-435
MOLT-4 leukemia = test system: MOLT-4 leukemia
NCI-H226 lung = test system: NCI-H226 lung
NCI-H460 lung = test system: NCI-H460 lung
NCI-H522 lung = test system: NCI-H522 lung
OVCAR-3 ovarian = test system: OVCAR-3 ovarian
OVCAR-4 ovarian = test system: OVCAR-4 ovarian
OVCAR-8 ovarian = test system: OVCAR-8 ovarian
PC-3 prostate = test system: PC-3 prostate
RPMI-8226 leukemia = test system: RPMI-8226 leukemia
RXF 393 renal = test system: RXF 393 renal
SF-268 CNS = test system: SF-268 CNS
SF-295 CNS = test system: SF-295 CNS
SF-539 CNS = test system: SF-539 CNS
SK-MEL-2 melanoma = test system: SK-MEL-2 melanoma
SK-MEL-28 melanoma = test system: SK-MEL-28 melanoma
SK-MEL-5 melanoma = test system: SK-MEL-5 melanoma
SK-OV-3 ovarian = test system: SK-OV-3 ovarian
SN12C renal = test system: SN12C renal
SNB-19 CNS = test system: SNB-19 CNS
SNB-75 CNS = test system: SNB-75 CNS
SR leukemia = test system: SR leukemia
SW-620 colon = test system: SW-620 colon
T-47D breast = test system: T-47D breast
TK-10 renal = test system: TK-10 renal
U251 CNS = test system: U251 CNS
UACC-257 melanoma = test system: UACC-257 melanoma
UACC-62 melanoma = test system: UACC-62 melanoma
UO-31 renal = test system: UO-31 renal

In the case of CCOC(=O)c1sc(=S)c2c(C(=O)c3ccccc3)c(C(=O)c3ccccc3)sc2c1C(=O)OCC, the GI50 (786-0 renal) was 6.8 µM, the TGI (786-0 renal) was over 100 µM and the GI50 (A498 renal) was 7.96 µM. For the same compound, the TGI (A498 renal) was 52.2 µM, the GI50 (A549 NSCLC) was 5.17 µM and the TGI (A549 NSCLC) was over 100 µM. It also gave a GI50 (ACHN renal) of 3 µM, a TGI (ACHN renal) of 9.32 µM and a GI50 (BT-549 breast) of 3.43 µM. For the same compound, the TGI (BT-549 breast) was 12.6 µM, the GI50 (CAKI-1 renal) was 3.93 µM and the TGI (CAKI-1 renal) was over 100 µM. It also gave a GI50 (CCRF-CEM leukemia) of 2.1 µM, a TGI (CCRF-CEM leukemia) of 5.99 µM and a GI50 (COLO 205 colon) of 15.8 µM. The TGI (COLO 205 colon) was 45.6 µM, the GI50 (DU-145 prostate) was 4.07 µM and the TGI (DU-145 prostate) was over 100 µM. The GI50 (EKVX NSCLC) was 4.94 µM, the TGI (EKVX NSCLC) was 52.2 µM and the GI50 (HCT-116 colon) was 4.16 µM. For the same compound, the TGI (HCT-116 colon) was over 100 µM, the GI50 (HCT-15 colon) was 4.1 µM and the TGI (HCT-15 colon) was over 100 µM. The GI50 (HL-60(TB) leukemia) was 2.71 µM, the TGI (HL-60(TB) leukemia) was 7.58 µM and the GI50 (HOP-62 NSCLC) was 9.16 µM. For the same compound, the TGI (HOP-62 NSCLC) was over 100 µM, the GI50 (HOP-92 NSCLC) was 4.74 µM and the TGI (HOP-92 NSCLC) was 90.1 µM. For the same compound, the GI50 (HS 578T breast) was 3.54 µM, the TGI (HS 578T breast) was 61.1 µM and the GI50 (HT29 colon) was 6.9 µM. It also gave a TGI (HT29 colon) of over 100 µM, a GI50 (IGROV1 ovarian) of 5.24 µM and a TGI (IGROV1 ovarian) of 85.7 µM. For the same compound, the GI50 (K-562 leukemia) was 3.21 µM, the TGI (K-562 leukemia) was over 100 µM and the GI50 (KM12 colon) was 2.44 µM. The TGI (KM12 colon) was 11 µM, the GI50 (LOX IMVI melanoma) was 5.08 µM and the TGI (LOX IMVI melanoma) was over 100 µM. The GI50 (M14 melanoma) was 5.56 µM, the TGI (M14 melanoma) was over 100 µM and the GI50 (MCF7 breast) was 3.74 µM. The TGI (MCF7 breast) was 26.6 µM, the GI50 (MDA-MB-231 breast) was 3.61 µM and the TGI (MDA-MB-231 breast) was 34.5 µM. It also gave a GI50 (MDA-MB-435) of 3.34 µM, a TGI (MDA-MB-435) of 9.66 µM and a GI50 (MOLT-4 leukemia) of 3.58 µM. The TGI (MOLT-4 leukemia) was over 100 µM, the GI50 (NCI-H226 lung) was 6.68 µM and the TGI (NCI-H226 lung) was over 100 µM. For the same compound, the GI50 (NCI-H460 lung) was 21 µM, the TGI (NCI-H460 lung) was over 100 µM and the GI50 (NCI-H522 lung) was 2.66 µM. The TGI (NCI-H522 lung) was 6.89 µM, the GI50 (OVCAR-3 ovarian) was 2.01 µM and the TGI (OVCAR-3 ovarian) was 5.93 µM. The GI50 (OVCAR-4 ovarian) was 9.58 µM, the TGI (OVCAR-4 ovarian) was over 100 µM and the GI50 (OVCAR-8 ovarian) was 3.44 µM. For the same compound, the TGI (OVCAR-8 ovarian) was over 100 µM, the GI50 (PC-3 prostate) was 3.61 µM and the TGI (PC-3 prostate) was 35.4 µM. It also gave a GI50 (RPMI-8226 leukemia) of 2.87 µM, a TGI (RPMI-8226 leukemia) of 9.19 µM and a GI50 (RXF 393 renal) of 4.48 µM. The TGI (RXF 393 renal) was over 100 µM, the GI50 (SF-268 CNS) was 3.55 µM and the TGI (SF-268 CNS) was 71.8 µM. For the same compound, the GI50 (SF-295 CNS) was 2.86 µM, the TGI (SF-295 CNS) was 13.5 µM and the GI50 (SF-539 CNS) was 3.82 µM. The TGI (SF-539 CNS) was 17.8 µM, the GI50 (SK-MEL-2 melanoma) was 3.51 µM and the TGI (SK-MEL-2 melanoma) was 48.4 µM. For the same compound, the GI50 (SK-MEL-28 melanoma) was 25.3 µM, the TGI (SK-MEL-28 melanoma) was over 100 µM and the GI50 (SK-MEL-5 melanoma) was 2.38 µM. The TGI (SK-MEL-5 melanoma) was 5.76 µM, the GI50 (SK-OV-3 ovarian) was 37.4 µM and the TGI (SK-OV-3 ovarian) was over 100 µM. The GI50 (SN12C renal) was 3.16 µM, the TGI (SN12C renal) was 19.2 µM and the GI50 (SNB-19 CNS) was 8.87 µM. The TGI (SNB-19 CNS) was over 100 µM, the GI50 (SNB-75 CNS) was 22.6 µM and the TGI (SNB-75 CNS) was over 100 µM. For the same compound, the GI50 (SR leukemia) was 2.58 µM, the TGI (SR leukemia) was 5.98 µM and the GI50 (SW-620 colon) was 4.25 µM. It also gave a TGI (SW-620 colon) of over 100 µM, a GI50 (T-47D breast) of 8.64 µM and a TGI (T-47D breast) of over 100 µM. It also gave a GI50 (TK-10 renal) of 3.17 µM, a TGI (TK-10 renal) of 63.5 µM and a GI50 (U251 CNS) of 3.49 µM. For the same compound, the TGI (U251 CNS) was over 100 µM, the GI50 (UACC-257 melanoma) was 3.45 µM and the TGI (UACC-257 melanoma) was 25.7 µM. The GI50 (UACC-62 melanoma) was 2.99 µM, the TGI (UACC-62 melanoma) was 17.8 µM and the GI50 (UO-31 renal) was 5.12 µM. The TGI (UO-31 renal) was over 100 µM.
